The target of assay [1] is T1, nvTRPM2 (Nematostella vectensis, UniProt A7T1N0, E1443I/F1444L).
T1 construct: gene TRPM2

For assay [2], the target named is T2, nvTRPM2 (Nematostella vectensis, UniProt A7T1N0, E1446K/E1447K).
T2 construct: gene TRPM2

Molecules are shown by their SMILES. pEC50: −log10 of the molar value.

T2 sequence (A7T1N0 whole entry E1446K/E1447K): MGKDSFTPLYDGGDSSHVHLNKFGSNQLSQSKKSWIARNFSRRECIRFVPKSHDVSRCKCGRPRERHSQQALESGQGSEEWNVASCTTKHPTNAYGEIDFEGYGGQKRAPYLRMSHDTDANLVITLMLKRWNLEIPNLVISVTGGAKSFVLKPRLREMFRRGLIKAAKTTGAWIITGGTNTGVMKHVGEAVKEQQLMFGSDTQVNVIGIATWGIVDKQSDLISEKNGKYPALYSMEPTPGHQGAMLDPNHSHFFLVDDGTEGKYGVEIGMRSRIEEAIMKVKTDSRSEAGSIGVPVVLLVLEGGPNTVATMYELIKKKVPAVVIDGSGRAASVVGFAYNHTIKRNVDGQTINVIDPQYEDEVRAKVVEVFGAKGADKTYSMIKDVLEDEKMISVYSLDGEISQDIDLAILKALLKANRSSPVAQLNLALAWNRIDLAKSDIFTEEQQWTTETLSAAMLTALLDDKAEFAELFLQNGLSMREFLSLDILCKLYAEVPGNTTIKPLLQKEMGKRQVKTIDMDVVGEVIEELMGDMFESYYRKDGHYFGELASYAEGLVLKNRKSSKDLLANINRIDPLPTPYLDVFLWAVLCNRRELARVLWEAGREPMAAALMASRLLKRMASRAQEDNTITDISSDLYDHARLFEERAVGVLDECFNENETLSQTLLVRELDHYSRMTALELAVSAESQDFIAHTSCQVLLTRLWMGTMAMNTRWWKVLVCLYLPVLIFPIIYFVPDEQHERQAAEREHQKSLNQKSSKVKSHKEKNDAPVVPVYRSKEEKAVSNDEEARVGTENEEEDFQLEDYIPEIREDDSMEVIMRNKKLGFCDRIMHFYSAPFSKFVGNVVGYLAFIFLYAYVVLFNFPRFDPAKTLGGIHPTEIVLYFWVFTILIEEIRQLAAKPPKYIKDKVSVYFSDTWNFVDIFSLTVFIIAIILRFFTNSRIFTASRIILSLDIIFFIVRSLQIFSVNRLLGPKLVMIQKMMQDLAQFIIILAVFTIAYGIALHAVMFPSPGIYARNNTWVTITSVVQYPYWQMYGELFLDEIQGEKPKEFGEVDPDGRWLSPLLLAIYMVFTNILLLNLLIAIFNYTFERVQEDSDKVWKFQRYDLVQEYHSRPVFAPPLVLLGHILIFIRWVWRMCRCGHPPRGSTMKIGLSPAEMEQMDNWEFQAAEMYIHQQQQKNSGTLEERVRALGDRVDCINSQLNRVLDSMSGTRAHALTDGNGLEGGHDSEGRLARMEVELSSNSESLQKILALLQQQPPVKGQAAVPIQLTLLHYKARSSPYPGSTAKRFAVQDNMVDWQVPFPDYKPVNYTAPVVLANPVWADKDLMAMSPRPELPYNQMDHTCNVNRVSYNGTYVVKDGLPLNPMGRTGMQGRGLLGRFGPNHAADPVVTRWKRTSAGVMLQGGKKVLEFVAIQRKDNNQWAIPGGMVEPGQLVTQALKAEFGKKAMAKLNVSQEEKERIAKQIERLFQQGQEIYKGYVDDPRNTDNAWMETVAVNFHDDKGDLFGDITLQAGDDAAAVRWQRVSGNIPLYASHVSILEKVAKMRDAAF
T1 sequence (A7T1N0 whole entry E1443I/F1444L): as the sequence (A7T1N0 whole entry E1446K/E1447K) above, with E1443I, F1444L, K1446E, K1447E counted along it

On to `Nc1ncnc2c1ncn2[C@@H]1O[C@H](COP(=O)(O)OP(=O)(O)OC[C@H]2OC(O)[C@H](O)[C@@H]2O)[C@@H](O)[C@H]1O` (some centres unmarked) [ADPR], for which the negative logarithm of the EC50 (pEC50) at nvTRPM2 [1] and on nvTRPM2 [2] was approximately 5.70 each time.

As usually defined, the pEC50 is the negative decadic logarithm of the EC50, by convention in mol/L. The low end stands for a high EC50, the high end for a low EC50.
